# Assays:
# [1] = test system: C-terminal fragments of the amyloid peptide; settings: cited from earlier work
# complement system = settings: cited from earlier work
# neuronal cell = settings: cited from earlier work
# [2] = cell culture; cited from earlier work
# [3] = low concentrations (0.03-0.1 mM)
# [4] = test system: K562 human erythroleukemia cell cultures; assay: Transfection of K562 cells with plasmid pCMVβ, beta-galactosidase reporter expression; type: cell-based; settings: FIG. 2
# [5] = pH 7.4; cited from earlier work
# [6] = test system: several different types of cells; settings: with monovalent cationic liposomal formulations (DC-Chol and lipofectin); cited from earlier work
# isolated lysosomes = settings: low concentrations of lipid; cited from earlier work
# luciferase = settings: cited from earlier work
compound,measurement,setting,value
apoE3: apolipoprotein E isoform,inhibition of amyloid peptide fusogenic and aggregational properties,[1],potent inhibitors
"CCCCCCCCCCCCCCCCCCN(CCCCCCCCCCCCCCCCCC)C(=O)CNC(=O)C(CCCNCCCN)NCCCN (centres unmarked) [DOGS, Dioctadecylamidoglycylspermine]",complement activation,complement system,Strong complement activation
"Non-aggregated amyloid beta-peptide (1-40): Alzheimer's beta-amyloid peptide 1-40, non-aggregated",Properties: neuronal cell death,neuronal cell,Induces apoptotic neuronal
poly(ethyleneimine),complement activation,complement system,Strong complement activation
poly-L-lysine,efficiency of adenovirus-mediated gene transfer,[2],significantly increased
NCCCNCCCCNCCCN [Spermine],transfection efficiency,[3],enhanced significantly transfection efficiency
apoE4: apolipoprotein E isoform,inhibition of amyloid peptide fusogenic and aggregational properties,[1],not apoE4
"CC(C)CCC[C@@H](C)[C@H]1CC[C@H]2[C@@H]3CC=C4C[C@@H](OC(=O)NCCN(C)C)CC[C@]4(C)[C@H]3CC[C@]12C [DC-cholesterol, 3β[N—(N′,N′-dimethylaminoethane)carbamoyl]cholesterol]",cationic lipid compared by level of expression of the reporter beta-galactosidase gene,[4]; liposomes L2-L6 with DOPE,best cationic lipid
same,charged fraction,[5],about 50%
Protamine sulfate,plasmid delivery into cells in vitro,[6],enhanced plasmid delivery
same,efficiency of adenovirus-mediated gene transfer,[2],significantly increased
"CCCCCCCC/C=C\CCCCCCCC(=O)OCC(C[N+](C)(C)C)OC(=O)CCCCCCC/C=C\CCCCCCCC.[Cl-] (centres unmarked) [DOTAP, N-(1-(2,3-dioleoyloxy)propyl)-N,N,N-trimethylammonium chloride]",free activity of β-galactosidase of isolated lysosomes (membrane destabilization),isolated lysosomes,striking increase in free activity of β-galactosidase
same,charged fraction,[5],100%
same,increase of antisense activity of anti-luciferase oligonucleotide,luciferase,over 100 fold
"CCCCCCCCCCCCCCOCC(C[N+](C)(C)CCO)OCCCCCCCCCCCCCC.[Br-] (centres unmarked) [DMRIE, N-[1-(2,3-dimyristyloxy)propyl]-N,N-dimethyl-N-(2-hydroxyethyl) ammonium bromide]",charged fraction,[5],100%
polyhistidine,DNA condensing reagent compared by level of expression of the reporter beta-galactosidase gene,"[4]; 10 μg pCMVβ, polyK/polyR/polyH plus liposomes 7 nmoles/μg DNA",best DNA condensing reagent
apoE2: apolipoprotein E isoform,inhibition of amyloid peptide fusogenic and aggregational properties,[1],potent inhibitors

# Reference: US9278067B2, “Encapsulation of plasmid DNA (lipogenes™) and therapeutic agents with nuclear localization signal/fusogenic peptide conjugates into targeted liposome complexes” (Regulon, Inc., priority 2000, dated 2016)
